In ChEMBL document CHEMBL1154982, “Sesquiterpene lactones from Scorzonera austriaca” (J Nat Prod, 2010):
Activity calls are given as the source filed them. No cut-off for these calls is given here.

Experiments:
Format in all cases: functional, cell-based
BGC-823 = assay: Cytotoxicity against human BGC823 cells by MTT assay
K562 [1] = assay: Cytotoxicity against human K562 cells by MTT assay
HepG2 = assay: Cytotoxicity against human HepG2 cells by MTT assay
K562 [2] = assay: Cytotoxicity against human adriamycin resistant K562 cells by MTT assay

SMILES | Activity (BGC-823) | Activity (K562 [1]) | Activity (HepG2) | Activity (K562 [2]) | IC50 (K562 [1]) [µM]
CC1=CC(=O)C2=C(COC(=O)CC(C)C)C[C@H](OS(=O)(=O)O)[C@@H]3[C@H](OC(=O)[C@H]3C)[C@@H]12 | inactive | inactive | inactive | inactive | –
CC1=CC(=O)C2=C(COC(=O)CC(C)C)C[C@H](O)[C@@H]3[C@H](OC(=O)[C@H]3C)[C@@H]12 | inactive | inactive | inactive | inactive | –
C=C1[C@@H]2[C@H]3OC(=O)[C@@H](CNCC4CCC(=O)O4)[C@@H]3CCC(=C)[C@@H]2C[C@@H]1O (stereo partly specified) [SCORZOAUSTRIACIN] | inactive | – | inactive | inactive | 11.3
C=C1[C@@H]2[C@H]3OC(=O)[C@@H](CNCC4CCC(=O)O4)[C@@H]3CCC(=C)[C@@H]2C[C@@H]1O[C@@H]1O[C@H](CO)[C@@H](O)[C@H](O)[C@H]1O (stereo partly specified) | inactive | inactive | inactive | inactive | –
